Data reported in US8178530B2, “Imidazolopyrazine compounds useful for the treatment of degenerative and inflammatory diseases” (Janssen Pharmaceutica NV, priority 2006, dated 2012).

test system: TNFα release by human PBMCs; assay: Cytokine release by LPS-stimulated human PBMCs (TNFα ELISA); format: cell-based; conditions: LPS 1 μg/mL, 24 hr, read-out: PBMC EC50
Procedure: Human peripheral blood mononuclear cells (PBMCs) are isolated from “buffy coats” prepared from the blood of healthy volunteers, isolated essentially according to method of Bøyum (1984). In brief, buffy coat is diluted 1:1 with 1×PBS (Gibco) and 30 mL is carefully put on top of 20 mL Lymphoprep™ (Lucron Bioproducts) in 50 mL Falcon tubes. After centrifugation (35 min, 400 g, 18° C.) the mononuclear cells are collected from the white interphase and washed 3 times with 1×PBS by resuspending and centrifugation (10 min, 200 g). Isolated PBMCs are finally resuspended in RPMI 1640 (Cat. No. 21875, Gibco) that is supplemented with 10% heat-inactivated FBS (Hyclone).
For the assay PBMCs are seeded at 2.5E6 cells/mL in 160 μL in 96-well plates (Nunc). Serial dilution of the test compounds are made first in DMSO (Sigma) and then diluted 50-fold in M199 medium (Gibco) containing 1% heat-inactivated FBS. Compounds are further 1/10 diluted in the assay plates to obtain final DMSO concentration of 0.2%. Cells are preincubated with the compounds for 1 hr at 37° C., 5% CO2. Then, cells are stimulated with LPS (Escherichia coli serotype 026:B6, Cat. No. L2654, Sigma) that is added in a volume of 20 μL to a final concentration of 1 μg/mL and cells are further cultured for 24 hr. The plates are centrifuged and the supernatant is collected and stored at −80° C. until analysis of appropriate dilutions in ELISAs.
The following 384-well chemiluminescent ELISA protocol was developed to measure TNFα levels in the supernatant: White Lumitrac 600 384-well plates (Greiner) are coated with (40 μL/well) anti-TNFα capture antibody (Cat. No. 551220, BD Pharmingen) that is diluted to 1 μg/mL in 1×PBS (Gibco). After overnight incubation at 4° C., plates are washed with 1×PBS (80 g NaCl, 2 g KCl (Sigma), 11.5 g Na2HPO4.7H2O and 2 g KH2PO4 in 10 L milliQ; pH 7.4) and blocked with 100 μL/well buffer B (1×PBS containing 1% BSA (Sigma), 5% sucrose (Sigma) and 0.05% NaN3 (Sigma)). After 4 hr incubation at RT, blocking buffer is removed and plates are washed once with PBST (1×PBS with 0.05% Tween-20 (Sigma)). Then, 40 μL of sample is transferred to the ELISA plates and plates are incubated at 4° C. Next day, plates are washed 3 times (twice with PBST and once with PBS) and 35 μL/well biotinylated anti-TNFα antibody (Cat. No. 554511, BD Pharmingen) diluted first to a concentration of 250 ng/ml in buffer D (1×PBS with 1% BSA) is added. After 2 h of incubation at RT, plates are washed as described above and 35 μL/well of a 1/2000 dilution of streptavidin-HRP conjugate (Cat. No. SNN2004, Biosource) in buffer D is added. After 45 min, plates are washed as described above and incubated for 5 min with 50 μL/well BM Chemiluminescence ELISA Substrate POD (Roche). Readout is performed on the Luminoscan Ascent Luminometer (Labsystems) with an integration time of 100 msec delivering raw data (RLU: relative luminescence units). The following controls are included in the experiments, a maximal signal control, in which the cells are activated by LPS but only the 0.2% DMSO vehicle (and thus no compound) is added. This control indicates the maximal level of TNFα that can be achieved in the test. A minimal signal control is also included in these experiments. Here, cells are not triggered. This control returns the basal TNFα levels produced by the PBMCs. The percent inhibition (PIN) of the TNFα release, achieved by the compounds is then calculated based on the RLU data returned by the ELISA with following formula: 100−[((TNFα level compound X at concentration Y−minimal TNFα levels)/(maximal TNFα levels−minimal TNFα levels))×100]. Where compounds are tested at 8 concentrations (1/3 serial dilution), EC50-values can be calculated by curve fitting of the means of the PIN data achieved for a compound at each test concentration. […]

With “4-(8-{4-[1-(2,2,2-Trifluoroethyl)piperidin-4-yl]phenylamino}imidazo[1,2-a]pyrazin-5-yl)thiophene-2-carboxylic acid amide [Compound 192]” the EC50 was over 1 µM.

same assay, conditions: PBMC, LPS 1 μg/mL, 24 hr

First: NC(=O)c1ccc(-c2cnc(Nc3ccc(-n4ccnc4)cc3)c3nccn23)cc1 [Compound 167]
Second: Cn1cnnc1-c1ccc(Nc2ncc(-c3ccc(C(N)=O)cc3)n3ccnc23)cc1 [Compound 141]
The EC50 of the first is lower: 0.001 to 0.1 µM for the first, over 1 µM for the second.

C[C@@H]1CN(c2ccc(Nc3ncc(-c4csc(C(N)=O)c4)n4ccnc34)cc2)[C@@H](C)CN1C [Compound 186] and C[C@@H]1CN(c2ccc(Nc3ncc(-c4cc(C(N)=O)co4)n4ccnc34)cc2)[C@@H](C)CN1C [Compound 187] cannot be ordered by EC50: over 1 µM for the first, over 1 µM for the second.

First: NC(=O)c1ccc(-c2cnc(Nc3ccc(N4CCN(CCO)CC4)cc3)c3nccn23)cc1 [Compound 156]
Second: NC(=O)c1ccc(-c2cnc(Nc3ccc(N4CCCCC4)cc3)c3nccn23)cc1 [Compound 144]
The EC50 of the first is higher: over 1 µM for the first, 0.001 to 0.1 µM for the second. The second is the more potent here.

Compared with c1cn2c(-c3cn[nH]c3C3CC3)cnc(Nc3ccc(N4CCOCC4)cc3)c2n1 [Compound 160, [5-(5-Cyclopropyl-1H-pyrazol-4-yl)-imidazo[1,2-a]pyrazin-8-yl]-(4-morpholin-4-yl-phenyl)-amine], NC(=O)c1cnc(-c2cnc(Nc3ccc(N4CCOCC4)cc3)c3nccn23)s1 [Compound 158, 2-[8-(4-Morpholin-4-yl-phenylamino)-imidazo[1,2-a]pyrazin-5-yl]-thiazole-5-carboxylic acid amide] is lower in EC50: over 1 µM for the first, 0.101 to 0.5 µM for the second. The second is the more potent here.

O=C(NC1CCNC1)c1ccc(Nc2ncc(-c3cn[nH]c3)n3ccnc23)cc1 (stereo not shown) [Compound 55] and NC(=O)c1ccc(Nc2ncc(-c3cn[nH]c3)n3ccnc23)cc1 [Compound 11] cannot be ordered by EC50: over 1 µM for the first, over 1 µM for the second.

CN(C)C(CNC(=O)c1ccc(Nc2ncc(-c3cc[nH]c(=O)c3)n3ccnc23)cc1)c1cccnc1 (stereo not shown) [Compound 114] and O=C(NCCc1cccnc1)c1ccc(Nc2ncc(-c3cn[nH]c3)n3ccnc23)cc1 [Compound 93] cannot be ordered by EC50: over 1 µM for the first, over 1 µM for the second.

CN1CCN(c2ccc(Nc3ncc(-c4cc(C(N)=O)co4)n4ccnc34)cc2)CC1 [Compound 151] and CN1CCN(c2ccc(Nc3ncc(-c4ccc(C(N)=O)cn4)n4ccnc34)cc2)CC1 [Compound 128] cannot be ordered by EC50: over 1 µM for the first, over 1 µM for the second.

NS(=O)(=O)c1ccc(Nc2ncc(-c3cn[nH]c3)n3ccnc23)cc1 [Compound 36] and CS(=O)(=O)c1ccc(Nc2ncc(-c3cn[nH]c3)n3ccnc23)cc1 [Compound 71] cannot be ordered by EC50: over 1 µM for the first, over 1 µM for the second.

CN1CCN(c2ccc(Nc3ncc(-c4cc(F)c(C(N)=O)c(F)c4)n4ccnc34)cc2)CC1 [Compound 140] and C[C@@H]1CN(c2ccc(Nc3ncc(-c4cc(F)c(C(N)=O)c(F)c4)n4ccnc34)cc2)[C@@H](C)CN1C [Compound 181] cannot be ordered by EC50: over 1 µM for the first, over 1 µM for the second.

O=C1NCc2cc(-c3cnc(Nc4ccc(N5CCOCC5)cc4)c4nccn34)sc21 [Compound 198, 2-[8-(4-Morpholin-4-yl-phenylamino)-imidazo[1,2-a]pyrazin-5-yl]-4,5-dihydro-thieno[2,3-c]pyrrol-6-one] and NC(=O)c1ncc(-c2cnc(Nc3ccc(N4CCOCC4)cc3)c3nccn23)s1 [Compound 173, 5-[8-(4-Morpholin-4-yl-phenylamino)-imidazo[1,2-a]pyrazin-5-yl]-thiazole-2-carboxylic acid amide] cannot be ordered by EC50: over 1 µM for the first, over 1 µM for the second.

O=C1NCc2cc(-c3cnc(Nc4cccnc4)c4nccn34)ccc21 [Compound 197] and CN1CCN(c2ccc(Nc3ncc(-c4cn[nH]c4)n4ccnc34)cc2)CC1 [Compound 14] cannot be ordered by EC50: over 1 µM for the first, over 1 µM for the second.

CCNCCNC(=O)c1ccc(Nc2ncc(-c3cn[nH]c3)n3ccnc23)cc1 [Compound 56] and CCN(CC)CCNC(=O)c1ccc(Nc2ncc(-c3cn[nH]c3)n3ccnc23)cc1 [Compound 32, N-(2-Diethylamino-ethyl)-4-[5-(1H-pyrazol-4-yl)-imidazo[1,2-a]pyrazin-8-ylamino]-benzamide] cannot be ordered by EC50: over 1 µM for the first, over 1 µM for the second.

O=C(c1ccc(Nc2ncc(-c3cn[nH]c3)n3ccnc23)cc1)N1CCOCC1 [Compound 45] and CNC(=O)c1ccc(-c2cnc(Nc3ccc(N4CCN(C)CC4)cc3)c3nccn23)cc1 [Compound 116] cannot be ordered by EC50: over 1 µM for the first, over 1 µM for the second.

CN(C)Cc1cn(-c2ccc(Nc3ncc(-c4ccc(C(N)=O)cc4)n4ccnc34)cc2)nn1 [Compound 166, 4-{8-[4-(4-Dimethylaminomethyl-[1,2,3]triazol-1-yl)-phenylamino]-imidazo[1,2-a]pyrazin-5-yl}-benzamide] and CCN(CC)CCNS(=O)(=O)c1ccc(Nc2ncc(-c3ccc(C(N)=O)cc3)n3ccnc23)cc1 [Compound 98] cannot be ordered by EC50: over 1 µM for the first, over 1 µM for the second.

First: CC(C)N1CCN(c2ccc(Nc3ncc(-c4coc(C(N)=O)c4)n4ccnc34)cc2)CC1 [Compound 204, 4-{8-[4-(4-Isopropyl-piperazin-1-yl)-phenylamino]-imidazo[1,2-a]pyrazin-5-yl}-furan-2-carboxylic acid amide]
Second: CCN(CC)CCNS(=O)(=O)c1ccc(Nc2ncc(-c3cn[nH]c3)n3ccnc23)cc1 [Compound 69, N-(2-Diethylaminoethyl)-4-[5-(1H-pyrazol-4-yl)imidazo[1,2-a]pyrazin-8-ylamino]benzenesulfonamide]
The EC50 of the first is higher: over 1 µM for the first, 0.501 to 1 µM for the second. The second is the more potent here.
